Tested on: JHH-NF1-GBM1 glioma viability, PrestoBlue fluorescence, 120 h
Test: viability reduction in NF1-associated ATRX-deficient glioma cells, dose response, cell-based, JHH-NF1-GBM1, PrestoBlue (AID 2060364)

Which IC50 does the source give for O=[N+]([O-])c1c(NCCO)cc(Sc2nc3ccccc3s2)c2nonc12 here?
Its IC50 is 4.84 µM.
